pIC50: −log10 of the molar value.
Legend:
[1] = molecular target: T1, Full length Human HDAC8 (Homo sapiens, UniProt Q9BY41); assay: Caliper endpoint assay for HDAC enzymatic activity (HDAC8); assay type: biochemical; conditions: in vitro enzymatic, 30 min pre-incubation, 1 μM substrate peptide
T1 construct: Full length Human HDAC8; HIS (N); host or cells: baculovirus expression system
T1 sequence (Q9BY41 1-377): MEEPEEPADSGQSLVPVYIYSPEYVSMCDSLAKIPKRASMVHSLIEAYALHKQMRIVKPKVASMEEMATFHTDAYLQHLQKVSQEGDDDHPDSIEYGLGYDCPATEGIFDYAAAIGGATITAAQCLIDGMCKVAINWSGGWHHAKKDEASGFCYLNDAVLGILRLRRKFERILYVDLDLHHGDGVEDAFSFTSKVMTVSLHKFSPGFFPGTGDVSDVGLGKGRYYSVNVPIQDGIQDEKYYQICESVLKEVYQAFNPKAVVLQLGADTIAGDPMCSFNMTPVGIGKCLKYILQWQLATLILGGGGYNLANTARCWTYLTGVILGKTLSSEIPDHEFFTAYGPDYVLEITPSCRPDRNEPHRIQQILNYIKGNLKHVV

[2] = molecular target: T2, Full length Human HDAC6 (Homo sapiens, UniProt Q9UBN7); assay: Caliper endpoint assay for HDAC enzymatic activity (HDAC6); assay type: biochemical; conditions: for pIC50: in vitro enzymatic, Caliper endpoint assay, 30 min pre-incubation, 1 μM substrate peptide; for Selectivity (6 v 8): ratio of HDAC8 IC50/HDAC6 IC50
T2 construct: Full length Human HDAC6; FLAG (C); host or cells: baculovirus expression system
T2 sequence (Q9UBN7 1-1215): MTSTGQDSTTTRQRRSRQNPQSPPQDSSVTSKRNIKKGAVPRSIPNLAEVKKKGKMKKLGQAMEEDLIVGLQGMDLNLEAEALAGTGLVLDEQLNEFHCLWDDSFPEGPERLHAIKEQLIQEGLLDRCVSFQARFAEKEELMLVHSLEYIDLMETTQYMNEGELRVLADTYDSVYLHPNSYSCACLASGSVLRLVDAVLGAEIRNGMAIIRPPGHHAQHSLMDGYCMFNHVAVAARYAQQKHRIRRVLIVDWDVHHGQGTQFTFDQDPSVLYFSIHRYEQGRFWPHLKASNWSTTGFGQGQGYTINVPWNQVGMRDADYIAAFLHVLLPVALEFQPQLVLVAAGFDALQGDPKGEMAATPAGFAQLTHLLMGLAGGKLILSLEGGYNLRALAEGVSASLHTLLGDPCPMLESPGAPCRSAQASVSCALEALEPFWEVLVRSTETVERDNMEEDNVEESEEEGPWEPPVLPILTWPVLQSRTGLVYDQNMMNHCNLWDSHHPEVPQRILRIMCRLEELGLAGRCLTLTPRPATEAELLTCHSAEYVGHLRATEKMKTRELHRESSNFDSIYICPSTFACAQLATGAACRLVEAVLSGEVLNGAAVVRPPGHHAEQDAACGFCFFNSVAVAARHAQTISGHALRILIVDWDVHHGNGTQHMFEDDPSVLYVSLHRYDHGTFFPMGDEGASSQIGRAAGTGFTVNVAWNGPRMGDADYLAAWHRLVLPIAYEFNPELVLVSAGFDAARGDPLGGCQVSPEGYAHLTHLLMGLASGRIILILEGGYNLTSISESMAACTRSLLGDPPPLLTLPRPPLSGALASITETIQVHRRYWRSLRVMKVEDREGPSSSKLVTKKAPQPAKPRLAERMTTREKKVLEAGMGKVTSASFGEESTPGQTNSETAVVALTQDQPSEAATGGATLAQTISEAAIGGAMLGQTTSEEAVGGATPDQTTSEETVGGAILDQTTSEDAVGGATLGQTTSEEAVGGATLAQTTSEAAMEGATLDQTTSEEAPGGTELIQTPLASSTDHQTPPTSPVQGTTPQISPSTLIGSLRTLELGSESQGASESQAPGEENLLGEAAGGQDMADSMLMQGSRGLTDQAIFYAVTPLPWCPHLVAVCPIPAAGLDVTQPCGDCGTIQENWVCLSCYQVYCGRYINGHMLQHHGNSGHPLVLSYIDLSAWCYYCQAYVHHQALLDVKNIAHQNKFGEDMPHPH

| SMILES | pIC50 [1] | pIC50 [2] | Selectivity (6 v 8) [2] |
| --- | --- | --- | --- |
| CC(=O)N1CCC2(CC1)CC(N1CCc3cc(C(=O)NO)cc(F)c3C1)C2 [Compound 199, 2-(7-acetyl-7-azaspiro[3.5]nonan-2-yl)-8-fluoro-N-hydroxy-1,2,3,4-tetrahydroisoquinoline-6-carboxamide] | 4.00 to 5.00 | 7.00 to 9.00 | IV (IV: >100-1000) |
| O=C(NO)c1cc(F)c2c(c1)CCN([C@H]1CC[C@]13CCOC3)C2 (single isomer, unassigned) [Compound 316] | 4.00 to 5.00 | 7.00 to 9.00 | V (V: >1000) |
| O=C(NO)c1ccc2c(c1)C[C@H]1CCCN1C2 [Compound 122] | 5.00 to 6.00 | 6.00 to 7.00 | III (III: >10-100) |
| CC(=O)N1CCC2(CC1)CC(CN1CCc3cc(C(=O)NO)cc(F)c3C1)C2 [Compound 471, 2-[(7-acetyl-7-azaspiro[3.5]nonan-2-yl)methyl]-8-fluoro-3,4-dihydro-1H-isoquinoline-6-carbohydroxamic acid] | 4.00 to 5.00 | 7.00 to 9.00 | IV (IV: >100-1000) |
| O=C(NO)c1cc(F)c2c(c1)CCN1CCCC[C@@H]21 (single isomer, unassigned) [Compound 139] | 5.00 to 6.00 | 7.00 to 9.00 | – |
| CC[C@H]1Cc2c(F)cc(C(=O)NO)cc2CN1CC1C2CNCC1C2 (single isomer, unassigned) [Compound 529] | 4.00 to 5.00 | 7.00 to 9.00 | IV (IV: >100-1000) |
| CC[C@@H]1Cc2c(F)cc(C(=O)NO)cc2CN1CC12CC(NC)(C1)C2 (single isomer, unassigned) [Compound 524] | 5.00 to 6.00 | 7.00 to 9.00 | III (III: >10-100) |
| O=C(NO)c1cc(F)c2c(c1)CCN([C@H]1CCC3(CCCCC3)C1)C2 (single isomer, unassigned) [Compound 109] | 4.00 to 5.00 | 7.00 to 9.00 | – |
| CC(C)N1CC2(CCCCC2)CC[C@@H]1Cc1cc(F)cc(C(=O)NO)c1 (single isomer, unassigned) [Compound 275] | 5.00 to 6.00 | 5.00 to 6.00 | I (I: 0.1-1) |
| O=C(NO)c1cc(F)c2c(c1)CCN([C@H]1CCC3(CCCC3)C1)C2 (single isomer, unassigned) [Compound 185] | 4.00 to 5.00 | 7.00 to 9.00 | IV (IV: >100-1000) |
| O=C(NO)c1cc(F)c2c(c1)CCN(C1CC[C@@]13CCCO3)C2 (single isomer, unassigned) [Compound 319] | 5.00 to 6.00 | 7.00 to 9.00 | IV (IV: >100-1000) |
| CN1CC2(CCC(N3CCc4cc(C(=O)NO)cc(F)c4C3)C2)C1 (centres unmarked) [Compound 389, 8-fluoro-2-(2-methyl-2-azaspiro[3.4]octan-6-yl)-3,4-dihydro-1H-isoquinoline-6-carbohydroxamic acid] | < 4.00 | 7.00 to 9.00 | V (V: >1000) |
| CC[C@H]1Cc2c(F)cc(C(=O)NO)cc2CN1C1CC2(C1)CN(C)C2 (single isomer, unassigned) [Compound 585] | 5.00 to 6.00 | 6.00 to 7.00 | III (III: >10-100) |
| CC[C@H]1Cc2c(F)cc(C(=O)NO)cc2CN1CC1C2CC1CN(C)C2 (single isomer, unassigned) [Compound 531] | < 4.00 | 7.00 to 9.00 | V (V: >1000) |
| O=C(NO)c1cc(F)c2c(c1)CCN([C@H]1C[C@@]3(CCCCO3)C1)C2 (single isomer, unassigned) [Compound 340, 8-fluoro-2-(5-oxaspiro[3.5]nonan-2-yl)-3,4-dihydro-1H-isoquinoline-6-carbohydroxamic acid] | 4.00 to 5.00 | 7.00 to 9.00 | V (V: >1000) |
| O=C(NO)c1cc(F)c2c(c1)CCN([C@H]1C[C@]3(CCCN(C4CC4)C3)C1)C2 (single isomer, unassigned) [Compound 345, 2-((2r,4s)-6-cyclopropyl-6-azaspiro[3.5]nonan-2-yl)-8-fluoro-N-hydroxy-1,2,3,4-tetrahydroisoquinoline-6-carboxamide] | 5.00 to 6.00 | 7.00 to 9.00 | IV (IV: >100-1000) |
| O=C(NO)c1cc(F)c2c(c1)CCN1CCCC[C@H]21 (single isomer, unassigned) [Compound 140] | 4.00 to 5.00 | 5.00 to 6.00 | – |
| CC[C@@H]1Cc2c(F)cc(C(=O)NO)cc2CN1C[C@@H]1CCCCO1 (single isomer, unassigned) [Compound 228] | 5.00 to 6.00 | 7.00 to 9.00 | III (III: >10-100) |
| O=C(NO)c1cc(F)c2c(c1)CN(C[C@H]1CCCCO1)CC2 (single isomer, unassigned) [Compound 215] | 6.00 to 7.00 | 7.00 to 9.00 | II (II: >1-10) |
| O=C(NO)c1cc(F)c2c(c1)C[C@H]1COCCN1C2 (single isomer, unassigned) [Compound 130] | < 4.00 | 4.00 to 5.00 | – |
| CC(=O)N1CC2(CCC(N3CCc4cc(C(=O)NO)cc(F)c4C3)C2)C1 (centres unmarked) [Compound 391, 2-(2-acetyl-2-azaspiro[3.4]octan-6-yl)-8-fluoro-N-hydroxy-1,2,3,4-tetrahydroisoquinoline-6-carboxamide] | 4.00 to 5.00 | 7.00 to 9.00 | IV (IV: >100-1000) |
| CC[C@H]1Cc2c(F)cc(C(=O)NO)cc2CN1C[C@@H]1CCCCO1 (single isomer, unassigned) [Compound 229] | 5.00 to 6.00 | 6.00 to 7.00 | III (III: >10-100) |
| O=C(NO)c1ccc2c(c1)C[C@@H]1CCCN1C2 [Compound 121] | 4.00 to 5.00 | 6.00 to 7.00 | III (III: >10-100) |
| CC[C@@H]1Cc2c(F)cc(C(=O)NO)cc2CN1C[C@H]1C[C@H]2CC[C@@H](C1)N2C (single isomer, unassigned) [Compound 572] | 5.00 to 6.00 | 7.00 to 9.00 | III (III: >10-100) |
| CC(=O)N1CC2(CC(N3CCc4cc(C(=O)NO)cc(F)c4C3)C2)C1 [Compound 292, 2-(2-acetyl-2-azaspiro[3.3]heptan-6-yl)-8-fluoro-N-hydroxy-1,2,3,4-tetrahydroisoquinoline-6-carboxamide] | 4.00 to 5.00 | 7.00 to 9.00 | IV (IV: >100-1000) |
| O=C(NO)c1cc(F)c2c(c1)CCN([C@H]1CCN(C3CC3)C3(CCC3)C1)C2 (single isomer, unassigned) [Compound 439] | 4.00 to 5.00 | 7.00 to 9.00 | IV (IV: >100-1000) |

From patent publication US12655106B2 (Eikonizo Therapeutics, Inc., priority 2021, dated 2026)
